Reference: patent US5635495A, “Pyrimidine bisphosphonate esters and (alkoxymethylphosphinyl)alkyl phosphonic acids as anti-inflammatories” (The Upjohn Company, priority 1995, dated 1997)

What was measured:
[1] = tested on: mBSA-induced DTH granuloma (DTH GRA) lesion; test: Delayed Type Hypersensitivity Granuloma Assay (DTH GRA) model for inflammation; type: in vivo, mouse; conditions: for % Inhibition Dry Weight: granuloma dry weight; for % Inhibition Dry Weight / % Inhibition Wet Weight: excised after nine days; for % Inhibition Wet Weight: granuloma wet weight
Description: Compounds of Formula 3 and a compound of Formula 2 have been tested in a Delayed Type Hypersensitivity Granuloma Assay (DTH GRA) model for inflammation. This assay is described by Dunn, C. J. et al., "Development of a delayed-type hypersensitivity granuloma model in the mouse for the study of chronic immune-mediated inflammatory disease," Agents and Actions, 27, 3/4 (1989) and "Murine Delayed-Type Hypersensitivity Granuloma," Int. J. Immunopharmc., 12, 8, 899-904 (1990).
Briefly, mBSA-sensitized mice have a DTH granuloma (DTH GRA) lesion induced by subcutaneously implanting a mBSA-soaked filter which is excised after nine days. Compounds are administered to the mice to determine their effect on the lesions. The results are recorded as percent inhibition. […] Inhibition of 10 to 20% is considered to indicate anti-granuloma activity. Greater than 30% inhibition is good activity.
The compound of Formula 2 tested was 1-((ethoxy-methylphosphinyl))-4-(3-methyl-6-phenyl-4(3H)-pyrimidinone-2-yl)-butane phosphonic acid diethyl ester, Example 16 and the DTH GRA data obtained for this compound was 44.4%.

calcium channel = test: in vitro model which identifies calcium channel blocking activity (KCl-induced calcium influx, INDO-1, human dermal fibroblasts); type: cell-based; conditions: 40 mM KCl, human dermal fibroblasts CRL 1445
Protocol: These compounds were also tested in an in vitro model which identifies calcium channel blocking activity. In this test, adherent human dermal fibroblasts (CRL 1445, ATCC, Bethesda, Md.) were allowed to attach to glass cover slips placed in 6 well culture plates. Cultures were maintained in DMEM supplemented with antibiotics and 10% fetal bovine serum (FBS) until confluent.
The fibroblasts were washed once with Dulbecco's phosphate buffered saline to remove the culture medium and FBS. The calcium probe, INDO-1 AM ([…]) in RPMI 1640 without phenol red and supplemented with 10 mM hepes and 2 mM glutamine was added to the cells for 1 hour at 37° C. The cells were washed twice with RPMI1640 and remained in this medium until calcium measurements were obtained with the Meridian ACAS digital image microscope.
The cover slip with the attached fibroblasts was placed in a chamber with 1 ml of RPMI on the microscope stage, and maintained at 37° C. The cells were exposed to a laser beam set at 310 nm and fluorescent emission was measured at 485 nm and 405 nm. Baseline resting calcium levels of the fibroblasts were measured for 30 seconds after which 40 mM KCl was added to the medium in the holder. Data was collected at 40 second intervals for a total of 300 to 400 seconds. Maximal calcium influx is usually reached within 40 seconds after the addition of KCl, and begins to slowly decrease to ~50% of the maximal level. The intracellular calcium concentrations remain elevated for at least 400 seconds.
In order to measure the inhibitory effect of the test compounds on changes in intracellular calcium, the compound was added to the cells maintained in RPMI medium for a minimum of 20 minutes before the fibroblast membranes were depolarized with KCl as outlined above. The mean increase in intracellular calcium was then compared to control fibroblasts which had been pretreated for similar lengths of time with DMSO and exposed to KCl. A calcium standard curve was obtained on the day of the experiments in order to generate absolute intracellular calcium concentrations if needed.
Two known calcium channel blockers, D600 and nifedipine were also tested to compare the relative efficacies of the "standard" compounds with the novel diphosphonates. For instance, D600 (available from the Sigma Co., St. Louis, Mo.) inhibited calcium influx into a cell by 83 to 100% at 10^-5 molar concentration. The Control is a sub-structure of Example 9 (k) not having the bisphosphonate teralkyl ester portion.

| SMILES | % Inhibition Dry Weight ([1]; 10 mg/kg PO) | % Inhibition Wet Weight ([1]; 10 mg/kg PO) | further results |
| --- | --- | --- | --- |
| CCOP(=O)(OCC)C(CNc1nc(C)cc(Oc2ccc(Cl)cc2Cl)n1)P(=O)(OCC)OCC [(f), (2-((4-2,4-dichlorophenoxy-6-methyl-2-pyrimidinyl)amino)ethylidene)bisphosphonic acid tetraethyl ester] | 39.7% | 45.9% | – |
| Cc1cc(Oc2ccc(Cl)cc2Cl)nc(N)n1 [Control, reference compound] | – | – | % Inhibition Mean SD (calcium channel activity) (calcium channel; 10^-5 M): 12% |
| Cc1cc(Oc2c(F)cccc2[N+](=O)[O-])nc(NCC(P2(=O)OCC(C)(C)CO2)P2(=O)OCC(C)(C)CO2)n1 [Ex. 17 (a), (2-((4-(2-fluoro-6-nitrophenoxy)-6-methyl-2-pyrimidinyl)amino)ethylidene)bis(2,2'-(5,5-dimethyl-2,2'-dioxide-1,3,2-dioxaphosphorphinane))] | 39.0% | 47.9% | – |
| Cc1cc(Oc2ccc(F)cc2F)nc(NCC(P2(=O)OCC(C)(C)CO2)P2(=O)OCC(C)(C)CO2)n1 [Ex. 18 (b), (2-((4-(2,4-difluorophenoxy)-6-methyl-2-pyrimidinyl)amino)ethylidene)bis(2,2'-(5,5-dimethyl-2,2'-dioxide-1,3,2-dioxaphosphorphinane))] | 58.3% | 70.6% | – |
| Cc1cc(Oc2ccc(Br)cc2Br)nc(NCC(P2(=O)OCC(C)(C)CO2)P2(=O)OCC(C)(C)CO2)n1 [Ex. 19 (d), (2-((4-(2-,4-dibromophenoxy)-6-methyl-2-pyrimidinyl)amino)ethylidene)bis(2,2'(5,5-dimethyl-2,2'-dioxide-1,3,2-dioxaphosphorphinane))] | 25.0% | 12.1% | – |
| Cc1cc(Oc2ccc(C#N)cc2)nc(NCC(P2(=O)OCC(C)(C)CO2)P2(=O)OCC(C)(C)CO2)n1 [Ex. 20 (e), (2-((4-(4-cyanophenoxy)-6-methyl-2-pyrimidinyl)amino)ethylidene)bis(2,2'-(5,5-dimethyl-2,2'-dioxide-1,3,2-dioxaphosphorphinane))] | 41.8% | 27.4% | – |
| Cc1cc(N2CCOCC2)nc(NCC(P2(=O)OCC(C)(C)CO2)P2(=O)OCC(C)(C)CO2)n1 [Ex. 21 (c), (2-((4-(4-morpholinyl)-6-methyl-2-pyrimidinyl)amino)ethylidene)bis(2,2'-(5,5-dimethyl-2,2'-dioxide-1,3,2-dioxaphosphorphinane))] | 62.5% | 68.6% | – |
| CCOP(=O)(OCC)C(CNc1nc(C)cc(Oc2ccc(Cl)cc2Cl)n1)P(=O)(OCC)OCC [Ex. 25 (k), (2-((4-(2,4-dichlorophenoxy)-6-methyl-2-pyrimidinyl)amino)ethylidene)bisphosphonic acid, tetraethyl ester] | – | – | % Inhibition Dry Weight ([1]; 100 mg/kg, administered sc): 39.6%; % Inhibition Wet Weight ([1]; 100 mg/kg, administered sc): 40.5%; % Inhibition Mean SD (calcium channel activity) (calcium channel; 10^-5 M): 92 ± 5%; % Inhibition Mean SD (calcium channel activity) (calcium channel; 10^-6 M): 75 ± 9%; % Inhibition Mean SD (calcium channel activity) (calcium channel; 10^-7 M): 35 ± 19% |
| COc1cc(C)nc(NCC(P2(=O)OCC(C)(C)CO2)P2(=O)OCC(C)(C)CO2)n1 [Ex. 26 (l), (2((4-(methyl)-6-methoxy-2-pyrimidinyl)amino)ethylidene)bis(2,2'-(5,5-dimethyl-2,2'-dioxide-1,3,2-dioxaphosphorphine))] | 44.8% | 41.9% | – |
| CCOP(C)(=O)C(CCc1nc(-c2ccccc2)cc(=O)n1C)P(=O)(OCC)OCC (stereo not drawn) [Example 16, 1-(Ethoxymethylphosphinyl)-3-(3-methyl-6-phenyl14(3H)-pyrimidinone-2-yl)-propane phosphonic acid diethyl ester] | – | – | DTH GRA percent inhibition ([1]; dose, route and wet/dry weight not given): 44.4% |
